Source: patent publication US20200071316A1, “ACTIVATORS OF THE RETINOIC ACID INDUCIBLE GENE "RIG-I" PATHWAY AND METHODS OF USE THEREOF” (Kineta Immuno-Oncology LLC, priority 2018, published 2020)

Assays:
[1] = system: IRF3 signaling pathway (IRF-inducible ISG54 promotor) in THP1-Lucia ISG cells; test: THP1-Lucia ISG reporter assay: induction of IRF3-dependent luciferase activity; type: cell-based; conditions: Homo sapiens, PMA-differentiated cells, 18 h after stimulation, read-out: THP1 ISG: fold increase of IRF3-dependent luciferase activity over background; for fold induction at 10 µM: 10 μM compound
How it was run: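 PMA-differentiated (100 ng/ml) reporter cells, parental and IRF3−/−, stimulated with compounds at 5–20 μM (mostly 10 μM). Secreted luciferase measured 18 h later. Scored as fold increase over untreated background in bands from "−" (<2.4-fold) to "+++++" (≥40-fold).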

[2] = system: THP1-Lucia ISG IRF3 −/− cells; test: IRF3-deficient THP1-Lucia ISG IRF3 −/− reporter assay (counter-screen); type: cell-based; conditions: Homo sapiens, 18 h after stimulation, read-out: THP1 ISG IRF3 −/−: fold increase of luciferase activity over background; for fold induction at 10 µM: 10 μM compound
How it was run: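 PMA-differentiated (100 ng/ml) reporter cells carrying ISRE/ISG54 minimal promoter-driven secreted luciferase were stimulated with compounds at 5–20 μM (mostly 10 μM). Luciferase measured 18 h later and expressed as fold increase over untreated background, binned from "−" (<2.4-fold) to "+++++" (≥40-fold).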

[3] = system: CXCL10 secretion by CT26 cells; test: RIG-I dependent CXCL10 secretion by CT26 colon carcinoma cells (ELISA); type: cell-based, murine; conditions: 10 μM compound, 24 h
How it was run: (§1)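 Murine CT26 colon carcinoma cells, and CRISPR-generated RIG-I knockout CT26 cells, were seeded at 1×10^4 cells/well and grown 24 h at 37 °C, 5% CO2, then treated with compounds at 5 to 20 μM. CXCL10 in supernatants was measured by ELISA 24 h after stimulation.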

[4] = system: RIG-I deficient CT26 RIG-1−/− cells; test: CXCL10 secretion in RIG-I deficient CT26 RIG-1−/− cells (ELISA); type: cell-based, murine; conditions: 10 μM compound, 24 h
How it was run: as §1

Row | Structure (SMILES) | fold induction at 10 µM [1] | fold induction at 10 µM [2] | CXCL10 secretion by CT26 cells [3] | CXCL10 secretion by CT26 RIG-I −/− cells [4] | fold induction at 20 µM ([1]; 20 μM compound (*)) | fold induction at 20 µM ([2]; 20 μM compound (*))
1 | O=C(Nc1nc2ccc(S(=O)(=O)N3CCC3)cc2s1)c1cc2c(cc1OCCN1CCOCC1)OCO2 [Example 61, N-[6-(azetidine-1-sulfonyl)-1,3-benzothiazol-2-yl]-6-[2-(morpholin-4-yl)ethoxy]-2H-1,3-bezodioxole-5-carboxamide] | 5 to 9.9 | < 2.4 | ++ (“++” indicates 200-399 pg/mL) | − (“−” indicates less than 100 pg/mL) |  | 
2 | CN(C)S(=O)(=O)c1ccc2nc(NC(=O)c3cc4ccccc4cc3OCCN3CCOCC3)sc2c1 [Example 30, N-[6-(dimethylsulfamoyl)-1,3-benzothiazol-2-yl]-3-[2-(morpholin-4-yl)ethoxy]naphthalene-2-carboxamide] | 10 to 19 | < 2.4 | +++ (“+++” indicates 400-799 pg/mL) | − (“−” indicates less than 100 pg/mL) |  | 
3 | O=C(Nc1nc2ccc(S(=O)(=O)N3CCC3)cc2s1)c1ccc2ccccc2c1 [Example 46, N-[6-(azetidine-1-sulfonyl)-1,3-benzothiazol-2-yl]naphthalene-2-carboxamide] |  |  | ++ (“++” indicates 200-399 pg/mL) | − (“−” indicates less than 100 pg/mL) | 10 to 19 | < 2.4
4 | O=C(Nc1cc2ccc(S(=O)(=O)N3CCCC3)cc2s1)c1ccc(-c2ccccc2)cc1 [Example 81, N-[6-(pyrrolidine-1-sulfonyl)-1-benzothiophen-2-yl]-[1,1′-biphenyl]-4-carboxamide] | 20 to 39 | < 2.4 | ++++ (“++++” indicates 800 to 1599 pg/mL) | − (“−” indicates less than 100 pg/mL) |  | 
5 | O=C(Nc1cc2ccc(S(=O)(=O)N3CCCC3)cc2s1)c1cc2ccccc2cc1OCCCCN1CCOCC1 [Example 70, 3-[4-(morpholin-4-yl)butoxy]-N-[6-(pyrrolidine-1-sulfonyl)-1-benzothiophen-2-yl]naphthalene-2-carboxamide] | 10 to 19 | < 2.4 | +++ (“+++” indicates 400-799 pg/mL) | − (“−” indicates less than 100 pg/mL) |  | 
6 | CS(=O)(=O)Nc1ccc2nc(NC(=O)c3ccc4ccccc4c3)sc2c1 [Example 7, N-(6-methanesulfonamido-1,3-benzothiazol-2-yl)naphthalene-2-carboxamide] | 20 to 39 | < 2.4 | ++ (“++” indicates 200-399 pg/mL) | − (“−” indicates less than 100 pg/mL) |  | 
7 | O=C(Nc1nc2ccc(S(=O)(=O)N3CCCCC3)cc2s1)c1cc2ccccc2cc1OCCCCN1CCOCC1 [Example 38, 3-[4-(morpholin-4-yl)butoxy]-N-[6-(piperidine-1-sulfonyl)-1,3-benzothiazol-2-yl]naphthalene-2-carboxamide] | 10 to 19 | < 2.4 | +++ (“+++” indicates 400-799 pg/mL) | − (“−” indicates less than 100 pg/mL) |  | 
8 | O=C(Nc1cc2ccc(S(=O)(=O)N3CCCC3)cc2s1)c1cc2c(cc1OCCN1CCOCC1)OCO2 [Example 75] | 5 to 9.9 | < 2.4 | ++ (“++” indicates 200-399 pg/mL) | − (“−” indicates less than 100 pg/mL) |  | 
9 | O=C(Nc1nc2ccc(S(=O)(=O)N3CCCC3)cc2s1)c1sc2ccccc2c1OCCN1CCOCC1 [Example 84, 3-[2-(morpholin-4-yl)ethoxy]-N-[6-(pyrrolidine-1-sulfonyl)-1,3-benzothiazol-2-yl]-1-benzothiophene-2-carboxamide] | 5 to 9.9 | < 2.4 | ++ (“++” indicates 200-399 pg/mL) | − (“−” indicates less than 100 pg/mL) |  | 
10 | O=C(Nc1cc2ccc(S(=O)(=O)N3CCCC3)cc2s1)c1cc2ccsc2cc1OCCN1CCOCC1 [Example 76, 6-[2-(morpholin-4-yl)ethoxy]-N-[6-(pyrrolidine-1-sulfonyl)-1-benzothiophen-2-yl]-1-benzothiophene-5-carboxamide] | 20 to 39 | < 2.4 | ++++ (“++++” indicates 800 to 1599 pg/mL) | − (“−” indicates less than 100 pg/mL) |  | 
11 | O=C(Nc1nc2ccc(S(=O)(=O)N3CCCC3)cc2s1)c1cc2ccsc2cc1OCCN1CCOCC1 [Example 39, 6-[2-(morpholin-4-yl)ethoxy]-N-[6-(pyrrolidine-1-sulfonyl)-1,3-benzothiazol-2-yl]-1-benzothiophene-5-carboxamide] | 20 to 39 | < 2.4 | ++ (“++” indicates 200-399 pg/mL) | − (“−” indicates less than 100 pg/mL) |  | 
12 | O=C(Nc1cc2ccc(S(=O)(=O)N3CCCC3)cc2s1)c1cc2ccccc2cc1OCCN1CCOCC1 [Example 74, 3-[2-(morpholin-4-yl)ethoxy]-N-[6-(pyrrolidine-1-sulfonyl)-1-benzothiophen-2-yl]naphthalene-2-carboxamide] | 10 to 19 | < 2.4 | +++ (“+++” indicates 400-799 pg/mL) | − (“−” indicates less than 100 pg/mL) |  | 
13 | O=C(Nc1nc2ccc(S(=O)(=O)N3CCOCC3)cc2s1)c1cc2ccccc2cc1OCCN1CCOCC1 [Example 16, 3-[2-(morpholin-4-yl)ethoxy]-N-[6-(morpholine-4-sulfonyl)-1,3-benzothiazol-2-yl]naphthalene-2-carboxamide] | 20 to 39 | < 2.4 | ++++ (“++++” indicates 800 to 1599 pg/mL) | − (“−” indicates less than 100 pg/mL) |  | 
14 | Cn1c(C(=O)Nc2nc3ccc(S(=O)(=O)N4CCC4)cc3s2)cc2ccccc21 [Example 51, N-[6-(azetidine-1-sulfonyl)-1,3-benzothiazol-2-yl]-1-methyl-1H-indole-2-carboxamide] | 2.4 to 4.9 | < 2.4 | + (“+” indicates 100-199 pg/mL) | − (“−” indicates less than 100 pg/mL) |  | 
15 | O=C(Nc1nc2ccc(S(=O)(=O)N3CCCC3)cc2s1)c1ccc(-c2ccccc2)cc1OCCCCN1CCOCC1 [Example 41, 3-[4-(morpholin-4-yl)butoxy]-N-[6-(pyrrolidine-1-sulfonyl)-1,3-benzothiazol-2-yl]-[1,1′-biphenyl]-4-carboxamide] | 20 to 39 | < 2.4 | +++++ (“+++++” indicates greater than or equal to 1600 pg/ml) | − (“−” indicates less than 100 pg/mL) |  | 
16 | O=C(Nc1nc2ccc(S(=O)(=O)N3CCC(O)C3)cc2s1)c1cc2ccccc2cc1OCCN1CCOCC1 (stereo not shown) [Example 56, N-{6-[(3-hydroxypyrrolidin-1-yl)sulfonyl]-1,3-benzothiazol-2-yl}-3-[2-(morpholin-4-yl)ethoxy]naphthalene-2-carboxamide] | 10 to 19 | < 2.4 | +++ (“+++” indicates 400-799 pg/mL) | − (“−” indicates less than 100 pg/mL) |  | 
17 | O=C(Nc1nc2ccc(S(=O)(=O)N3CCC3)cc2s1)c1cc2c(cc1OCCCCN1CCOCC1)OCO2 [Example 64, N-[6-(azetidine-1-sulfonyl)-1,3-benzothiazol-2-yl]-6-[4-(morpholin-4-yl)butoxy]-2H-1,3-benzodioxole-5-carboxamide] | 10 to 19 | < 2.4 | +++ (“+++” indicates 400-799 pg/mL) | − (“−” indicates less than 100 pg/mL) |  | 
18 | O=C(Nc1nc2ccc(S(=O)(=O)N3CCC3)cc2s1)c1ccc(-c2ccccc2)cc1 [Example 50, N-[6-(azetidine-1-sulfonyl)-1,3-benzothiazol-2-yl]-[1,1′-biphenyl]-4-carboxamide] | 5 to 9.9 | < 2.4 | +++++ (“+++++” indicates greater than or equal to 1600 pg/ml) | − (“−” indicates less than 100 pg/mL) |  | 
19 | CS(=O)(=O)Nc1ccc2nc(NC(=O)c3cc4ccccc4cc3OCCN3CCOCC3)sc2c1 [Example 28, N-(6-methanesulfonamido-1,3-benzothiazol-2-yl)-3-[2-(morpholin-4-yl)ethoxy]naphthalene-2-carboxamide] | 2.4 to 4.9 | < 2.4 | + (“+” indicates 100-199 pg/mL) | − (“−” indicates less than 100 pg/mL) |  | 
